Experimental findings from ChEMBL document CHEMBL3407358, “Boehmeriasin A as new lead compound for the inhibition of topoisomerases and SIRT2” (Eur J Med Chem, 2015) are described below.

What is called IC50 is the concentration that gives 50% inhibition. Lower therefore signals greater potency in that assay. The term inhibition denotes how much of the control response was suppressed.

One test concerns CCRF-CEM. Nature of the test: Antiproliferative activity against human CEM cells after 96 hrs by Coulter counter method. It counts as functional, cell-based.
A further test relates to L1210. Kind of test: Antiproliferative activity against mouse L1210 cells after 48 hrs by Coulter counter method. The settings on record: L1210, 48 h. It counts as functional, cell-based.
Another test deals with HeLa. Kind of test: Antiproliferative activity against human HeLa cells after 4 days by Coulter counter method. The class given is functional, cell-based. The settings on record: 96 h.
Test [1] in a line: Antiproliferative activity against bovine BAEC cells after 3 days by Coulter counter method. It counts as functional, cell-based. Conditions: Bos taurus, 72 h.
The target in test [2] is T1, NAD-dependent protein deacetylase sirtuin-2 (Homo sapiens) (UniProt Q8IXJ6).
T1 sequence (whole entry): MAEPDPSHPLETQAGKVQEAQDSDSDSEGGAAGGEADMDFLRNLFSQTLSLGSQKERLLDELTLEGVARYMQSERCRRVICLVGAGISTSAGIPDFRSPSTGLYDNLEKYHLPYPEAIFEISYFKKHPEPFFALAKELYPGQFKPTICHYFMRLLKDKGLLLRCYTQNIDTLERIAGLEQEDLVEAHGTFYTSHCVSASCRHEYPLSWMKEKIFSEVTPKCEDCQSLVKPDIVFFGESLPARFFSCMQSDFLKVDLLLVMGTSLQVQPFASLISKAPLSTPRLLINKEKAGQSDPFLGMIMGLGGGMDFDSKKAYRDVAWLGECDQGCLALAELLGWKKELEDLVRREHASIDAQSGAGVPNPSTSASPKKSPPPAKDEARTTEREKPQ
Kind of test: Inhibition of SIRT2 (unknown origin) using KI179 as substrate preincubated at 200 uM for 5 mins before substrate addition measured after 1 hr by Fluor de Lys fluorescence assay.

Test [3] deals with DNA topoisomerase 2-alpha (Homo sapiens) (UniProt P11388). Kind of test: Stabilization of recombinant human topoisomerase 2-pBR322 DNA cleavage complex assessed as linear DNA formation at 100 uM after 60 mins by agarose gel electrophoresis.
Test [4] addresses T2, NAD-dependent protein deacetylase sirtuin-1 (Homo sapiens) (UniProt Q96EB6).
T2 sequence (whole entry): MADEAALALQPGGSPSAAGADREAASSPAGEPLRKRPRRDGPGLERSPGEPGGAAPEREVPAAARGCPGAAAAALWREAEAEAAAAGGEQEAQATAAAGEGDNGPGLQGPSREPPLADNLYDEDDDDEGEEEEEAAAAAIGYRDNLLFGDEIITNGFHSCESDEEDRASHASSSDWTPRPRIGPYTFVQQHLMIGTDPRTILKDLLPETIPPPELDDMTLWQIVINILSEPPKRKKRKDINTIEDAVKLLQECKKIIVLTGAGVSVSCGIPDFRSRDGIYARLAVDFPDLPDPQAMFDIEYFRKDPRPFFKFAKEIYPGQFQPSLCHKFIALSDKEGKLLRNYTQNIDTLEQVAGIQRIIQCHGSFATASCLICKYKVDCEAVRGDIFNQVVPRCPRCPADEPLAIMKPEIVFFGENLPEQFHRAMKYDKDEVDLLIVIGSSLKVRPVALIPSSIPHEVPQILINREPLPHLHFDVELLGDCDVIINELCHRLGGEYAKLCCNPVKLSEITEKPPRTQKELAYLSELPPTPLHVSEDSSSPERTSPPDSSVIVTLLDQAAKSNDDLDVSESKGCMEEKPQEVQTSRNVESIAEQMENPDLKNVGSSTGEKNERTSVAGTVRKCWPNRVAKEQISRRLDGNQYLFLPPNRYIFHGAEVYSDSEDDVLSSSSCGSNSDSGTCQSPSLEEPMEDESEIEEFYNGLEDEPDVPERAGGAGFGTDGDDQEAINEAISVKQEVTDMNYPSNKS
Nature of the test: Inhibition of SIRT1 (unknown origin) using KI177 as substrate preincubated at 200 uM for 5 mins before substrate addition measured after 1 hr by Fluor de Lys fluorescence assay.

Test [5] has as its target T3, DNA topoisomerase 1 (Homo sapiens) (UniProt P11387).
T3 sequence (whole entry): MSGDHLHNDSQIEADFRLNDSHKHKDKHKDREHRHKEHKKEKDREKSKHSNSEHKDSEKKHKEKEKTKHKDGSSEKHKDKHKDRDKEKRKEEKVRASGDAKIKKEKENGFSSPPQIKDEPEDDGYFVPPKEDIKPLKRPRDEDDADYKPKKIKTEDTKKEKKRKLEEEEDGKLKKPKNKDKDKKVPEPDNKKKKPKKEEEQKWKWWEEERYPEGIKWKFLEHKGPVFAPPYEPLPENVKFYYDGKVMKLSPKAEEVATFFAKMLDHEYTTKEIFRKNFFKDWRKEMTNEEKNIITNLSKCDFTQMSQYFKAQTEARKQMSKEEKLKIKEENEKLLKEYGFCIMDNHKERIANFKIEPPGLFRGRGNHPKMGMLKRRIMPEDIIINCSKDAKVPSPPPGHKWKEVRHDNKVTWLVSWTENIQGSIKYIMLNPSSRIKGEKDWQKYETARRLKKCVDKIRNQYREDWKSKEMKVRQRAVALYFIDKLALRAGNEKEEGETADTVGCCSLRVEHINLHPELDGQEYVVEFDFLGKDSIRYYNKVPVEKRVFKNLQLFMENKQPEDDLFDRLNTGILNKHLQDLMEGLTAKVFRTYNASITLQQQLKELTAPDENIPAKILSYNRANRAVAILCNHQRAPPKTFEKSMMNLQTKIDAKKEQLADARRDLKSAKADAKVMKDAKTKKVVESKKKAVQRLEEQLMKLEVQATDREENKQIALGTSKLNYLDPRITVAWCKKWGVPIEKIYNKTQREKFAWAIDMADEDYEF
Kind of test: Stabilization of recombinant human topoisomerase 1-pBR322 DNA cleavage complex assessed as linear DNA formation at 0.5 uM after 60 mins by agarose gel electrophoresis.

Test [6] deals with DNA topoisomerase 2-alpha (Homo sapiens) (UniProt P11388). Kind of test: Inhibition of recombinant human topoisomerase 2-mediated relaxation of supercoiled pBR322 DNA at 50 uM after 60 mins by agarose gel electrophoresis.
The target is the same in test [7]. Kind of test: Inhibition of recombinant human topoisomerase 2-mediated relaxation of supercoiled pBR322 DNA at 10 uM after 60 mins by agarose gel electrophoresis.
For test [8] the target is unchanged. Nature of the test: Inhibition of recombinant human topoisomerase 2-mediated relaxation of supercoiled pBR322 DNA after 60 mins by agarose gel electrophoresis.
In test [9] the target is T3, DNA topoisomerase 1 (Homo sapiens). Kind of test: Inhibition of recombinant human topoisomerase 1-mediated relaxation of supercoiled pBR322 DNA at 10 uM after 60 mins by agarose gel electrophoresis.
Test [10] in a line: Antiproliferative activity against human HMEC1 cells after 4 days by Coulter counter method. The class given is functional, cell-based. The settings on record: HMEC-1, 96 h.
Test [11] has as its target DNA topoisomerase 2-alpha (Homo sapiens) (UniProt P11388). Nature of the test: Stabilization of recombinant human topoisomerase 2-pBR322 DNA cleavage complex assessed as linear DNA formation at 10 uM after 60 mins by agarose gel electrophoresis.

Calls of active or inactive are those of the source. The calls are words filed in the database; no cut-off is given here.

DNA topoisomerase 2-alpha (Homo sapiens), sequence (P11388 whole entry): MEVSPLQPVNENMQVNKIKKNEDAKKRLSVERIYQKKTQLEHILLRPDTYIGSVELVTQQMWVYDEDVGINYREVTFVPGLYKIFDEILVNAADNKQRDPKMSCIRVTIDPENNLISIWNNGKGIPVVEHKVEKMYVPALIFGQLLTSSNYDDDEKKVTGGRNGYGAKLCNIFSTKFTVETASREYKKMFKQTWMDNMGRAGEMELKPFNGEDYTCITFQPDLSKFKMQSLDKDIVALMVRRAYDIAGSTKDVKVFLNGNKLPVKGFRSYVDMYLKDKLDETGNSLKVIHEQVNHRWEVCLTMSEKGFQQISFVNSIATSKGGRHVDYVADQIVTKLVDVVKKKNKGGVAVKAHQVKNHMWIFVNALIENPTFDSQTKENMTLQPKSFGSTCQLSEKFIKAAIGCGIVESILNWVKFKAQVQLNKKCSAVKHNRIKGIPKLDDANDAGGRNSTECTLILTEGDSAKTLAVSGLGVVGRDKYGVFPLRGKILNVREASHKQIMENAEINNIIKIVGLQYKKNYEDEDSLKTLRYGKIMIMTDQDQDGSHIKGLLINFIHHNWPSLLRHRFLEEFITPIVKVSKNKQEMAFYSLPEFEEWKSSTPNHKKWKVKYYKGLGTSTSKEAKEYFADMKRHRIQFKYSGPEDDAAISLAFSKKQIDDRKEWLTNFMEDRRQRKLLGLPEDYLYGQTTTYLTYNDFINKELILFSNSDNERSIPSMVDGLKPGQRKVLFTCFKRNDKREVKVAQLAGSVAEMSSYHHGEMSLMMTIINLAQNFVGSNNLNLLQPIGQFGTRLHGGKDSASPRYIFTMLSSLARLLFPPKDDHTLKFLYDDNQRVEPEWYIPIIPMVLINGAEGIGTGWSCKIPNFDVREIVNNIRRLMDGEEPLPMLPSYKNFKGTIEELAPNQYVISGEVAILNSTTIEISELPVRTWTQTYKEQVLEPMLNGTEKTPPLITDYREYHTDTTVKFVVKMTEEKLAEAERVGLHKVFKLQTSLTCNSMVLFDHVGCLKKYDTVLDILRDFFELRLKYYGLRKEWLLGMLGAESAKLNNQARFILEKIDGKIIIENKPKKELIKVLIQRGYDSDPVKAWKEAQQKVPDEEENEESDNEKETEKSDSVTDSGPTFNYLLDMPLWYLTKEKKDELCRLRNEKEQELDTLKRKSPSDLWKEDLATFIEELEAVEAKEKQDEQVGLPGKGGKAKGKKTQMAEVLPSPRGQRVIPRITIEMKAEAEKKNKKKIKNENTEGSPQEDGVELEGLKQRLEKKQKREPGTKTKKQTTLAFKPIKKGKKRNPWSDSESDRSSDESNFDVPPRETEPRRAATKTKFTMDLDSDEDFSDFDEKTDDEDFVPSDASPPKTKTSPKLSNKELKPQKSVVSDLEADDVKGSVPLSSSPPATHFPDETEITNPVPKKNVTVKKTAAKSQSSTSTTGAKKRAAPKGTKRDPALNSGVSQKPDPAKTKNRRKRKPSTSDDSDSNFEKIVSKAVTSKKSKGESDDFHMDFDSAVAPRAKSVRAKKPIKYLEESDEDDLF

As to `COc1ccc2c3c(c4cc(OC)c(OC)cc4c2c1)CN1CCCC[C@@H]1C3`, the IC50 in the test on CCRF-CEM amounted to 0.185 µM; in the test with L1210 it was 0.019 µM; in the test on HeLa, 0.066 µM; in [1], 0.023 µM; in test [10], 0.0074 µM. Moreover, the inhibition was 65% in test [2], 12% in test [4] and “Dose-dependent effect” in [8]. Also, the outcome in test [3] and in test [5] was inactive. Moreover, the inhibition result in test [6] and in [9] was “Active” throughout. Besides, the inhibition entry in [7] is “inactive”.
With `COc1ccc(/C=C\c2cc(OC)c(OC)c(OC)c2)cc1OP(=O)(O)O` [FOSBRETABULIN DISODIUM], the concentration for half-maximal inhibition (IC50) with CCRF-CEM is 0.095 µM; in the test with L1210 it was 0.082 µM; in the test on HeLa, 0.079 µM; in test [1], 0.0039 µM; in test [10], 0.0029 µM.
Turning to `CC[C@@]1(O)C(=O)OCc2c1cc1n(c2=O)Cc2cc3ccccc3nc2-1`, the outcome in [5] was Active.
As to `COc1ccc2c3c(c4cc(OC)c(OC)cc4c2c1)CN1CCCCC1C3` (racemic), the IC50 in the test on CCRF-CEM worked out at 0.119 µM; with L1210, 0.071 µM; with HeLa it was 0.076 µM; in test [1] it was 0.009 µM; in test [10], 0.029 µM.
Turning to `COc1ccc2c3c(c4cc(OC)c(OC)cc4c2c1)CN1CCCC[C@H]1C3`, the IC50 in the test on CCRF-CEM was 0.201 µM; in the test on L1210 it was 0.111 µM; in the test with HeLa, 0.182 µM; in test [1] it was 0.023 µM; in [10], 0.082 µM. Further, the inhibition is 41% in test [2], 10% in test [4] and “Dose-dependent effect” in test [8]. The outcome in test [3] and in [5] was inactive. Besides, the inhibition result in test [6] and in test [9] was “Active” throughout. The inhibition result in [7] was “inactive”.
For `COc1cc(NS(C)(=O)=O)ccc1Nc1c2ccccc2nc2ccccc12`, the outcome in test [11] was Active.
